Test results as given in patent US20070093484A1, “3-Substituted 5,6-diaryl-pyrazine-2-carboxamide and -2-sulfonamide derivatives as cb1 modulators” (ASTRAZENECA AB, priority 2003, published 2007).

Target: T1, CB1 receptor (Homo sapiens, UniProt P21554)
T1 construct: expressed in transfected cells
Assay: [35S]-GTPγS binding assay, inhibition of CP55940-stimulated activity in membranes from CB1-transfected cells
Format: biochemical
Settings: membranes from cells stably transfected with the CB1 gene; EC80 concentration of agonist CP55940; 30° C., 45 min; read-out: IC50 (concentration required to give half maximal inhibition of GTPγS binding)
Source text: Compounds of the present invention are active against the receptor product of the CB1 gene. The compounds of the present invention are active at the CB 1 receptor (IC50<1 micromolar). Most preferred compounds have IC50<200 nanomolar. The affinity of the compounds of the invention for central cannabinoid receptors is demonstrable in methods described in Devane et al, Molecular Pharmacology, 1988, 34,605 or those described in WO 01/70700 or EP 656354. Alternatively the assay may be performed as follows.
10 μg of membranes prepared from cells stably transfected with the CB1 gene were suspended in 200 μl of 100 mM NaCl, 5 mM MgCl2, 1 mM EDTA, 50 mM HEPES (pH 7.4), 1 mM DTT, 0.1% BSA and 100 μM GDP. To this was added an EC80 concentration of agonist CP55940), the required concentration of test compound and 0.1 μCi [^35S]-GTPγS. The reaction was allowed to proceed at 30° C. for 45 nun. Samples were then transferred on to GF/B filters using a cell harvester and washed with wash buffer (50 mM Tris (pH 7.4), 5 mM MgCl2, 50 mM NaCl). Filters were then covered with scintilant and counted for the amount of [35]-GTPγS retained by the filter.
Activity is measured in the absence of all ligands (minimum activity) or in the presence of an EC80 concentration of CP55940 (maximum activity). These activities are set as 0% and 100% activity respectively. At various concentrations of novel ligand, activity is calculated as a percentage of the maximum activity and plotted. The data are fitted using the equation y=A+((B−A)/1+((C/x)UD)) and the IC50 value determined as the concentration required to give half maximal inhibition of GTPγS binding under the conditions used.

T1 sequence (P21554 whole entry): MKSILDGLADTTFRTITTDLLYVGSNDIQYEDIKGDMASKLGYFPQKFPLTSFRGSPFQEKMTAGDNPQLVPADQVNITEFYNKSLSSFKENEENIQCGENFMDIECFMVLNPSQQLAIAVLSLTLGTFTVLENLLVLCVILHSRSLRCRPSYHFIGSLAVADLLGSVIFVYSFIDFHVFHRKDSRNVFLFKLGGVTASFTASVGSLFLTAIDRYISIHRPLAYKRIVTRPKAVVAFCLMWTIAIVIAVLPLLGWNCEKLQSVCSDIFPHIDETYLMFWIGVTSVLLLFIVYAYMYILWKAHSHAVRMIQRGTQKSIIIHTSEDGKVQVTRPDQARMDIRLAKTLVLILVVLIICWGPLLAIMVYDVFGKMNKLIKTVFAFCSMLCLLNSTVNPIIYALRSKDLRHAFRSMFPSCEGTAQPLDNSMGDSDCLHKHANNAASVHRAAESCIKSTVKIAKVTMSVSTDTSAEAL

IC50 | SMILES
1.8 nM | CC(C)(C)NNC(=O)c1nc(-c2ccc(Cl)cc2)c(-c2ccc(Cl)cc2)nc1C(=O)OC(C)(C)C [Example 9]
13.5 nM | O=C(NN1CCCCC1)c1nc(-c2ccc(Cl)cc2)c(-c2ccc(Cl)cc2)nc1CN1CCOCC1 [Example 27, 5,6-bis(4-chlorophenyl)-3-(morpholin-4-ylmethyl)-N-piperidin-1-ylpyrazine-2-carboxamide]
1.4 nM | Cc1ccc(-c2nc(Cn3cnnn3)c(C(=O)NN3CCCCC3)nc2-c2ccc(C)cc2)cc1 [Example 35, 5,6-Bis(4-methylphenyl)-N-piperidin-1-yl-3-(1H-tetrazol-1-ylmethyl)pyrazine-2-carboxamide]
